Experimental findings from patent US8791303B2, “Herbicides” (Syngenta Limited, priority 2009, dated 2014) are described below.

Common to all, as to assay type: in vivo
The test system of series [1] is Echinochloa crus-galli (ECHCG). Briefly: Example A glasshouse herbicide test, pre-emergence, ECHCG. To be noted: Echinochloa crus-galli, pre-emergence, 312 h, Rate 250 g/ha, sprayed after cultivation for one day, evaluated after 13 days, read-out: Pre-Emergence Activity ECHCG (100=total damage to plant; 0=no damage to plant). The method, then: (§1) Seeds of a variety of test species are sown in standard soil in pots. After cultivation for one day (pre-emergence) or after 8 days cultivation (post-emergence) under controlled conditions in a glasshouse (at 24/16° C., day/night; 14 hours light; 65% humidity), the plants are sprayed with an aqueous spray solution derived from the formulation of the technical active ingredient in acetone/water (50:50) solution containing 0.5% Tween 20 (polyoxyethelyene sorbitan monolaurate, CAS RN 9005-64-5).
(§2) The test plants are then grown in a glasshouse under controlled conditions in a glasshouse (at 24/16° C., day/night; 14 hours light; 65% humidity) and watered twice daily. After 13 days for pre and post-emergence, the test is evaluated (100=total damage to plant; 0=no damage to plant).
(§3) Lolium perenne (LOLPE), Alopecurus myosuroides (ALOMY), Echinochloa crus-galli (ECHCG), Avena fatua (AVEFA)

For series [2], the system named is Echinochloa crus-galli (ECHCG). Briefly: Example A glasshouse herbicide test, post-emergence, ECHCG. To be noted: Echinochloa crus-galli, post-emergence, 312 h, Rate 250 g/ha, sprayed after 8 days cultivation, evaluated after 13 days, read-out: Post-Emergence Activity ECHCG (100=total damage to plant; 0=no damage to plant). The method, then:
as §1, §2, §3

Series [3] deals with Winter Wheat variety 'Hereward'. Briefly: Example B crop damage test, post-emergence, wheat seed treated with safener cloquintocet mexyl. Conditions: Rate 250 g/ha; post-emergence spray 8 days after sowing; seed treated with cloquintocet mexyl 0.5 g/kg dry seed; evaluated after 13 days. The protocol: Seeds of the Winter Wheat variety ‘Hereward’ were seed treated with a wettable powder formulation of the cereal herbicide safener, cloquintocet mexyl, at a rate of 0.5 grams per kilogram of dry seed prior to the initiation of glasshouse testing. One seed was sown per 1.5 inch plastic pot into a sandy loam soil at a depth of 1 cm, 8 days prior to application of the test compounds and was watered and grown under controlled conditions in a glasshouse (at 24/16° C., day/night; 14 hours light; 65% humidity). The plants were sprayed post-emergence with an aqueous spray solution derived from the formulation of the technical active ingredient in acetone/water (50:50) solution containing 0.5% Tween 20 (polyoxyethelyene sorbitan monolaurate, CAS RN 9005-64-5).
(§4) The test plants were then grown in a glasshouse under controlled conditions in a glasshouse (at 24/16° C., day/night; 14 hours light; 65% humidity) and watered twice daily. After 13 days for pre and post-emergence, the test was evaluated (100=total damage to plant; 0=no damage to plant).

The subject of series [4] is Avena fatua (AVEFA). Briefly: Example A glasshouse herbicide test, post-emergence, AVEFA. Conditions: Avena fatua, post-emergence, 312 h, Rate 250 g/ha, sprayed after 8 days cultivation, evaluated after 13 days, read-out: Post-Emergence Activity AVEFA (100=total damage to plant; 0=no damage to plant). The protocol: as §1, §2, §3
The subject of series [5] is Winter Wheat variety 'Hereward'. The series can be described thus: Example B crop damage test, post-emergence, unsafened wheat. Conditions: Rate 250 g/ha; post-emergence spray after 8 days cultivation; no safener; evaluated after 13 days. The method, then:
Seeds of the Winter Wheat variety ‘Hereward’ were sown in standard soil in pots. After 8 days cultivation under controlled conditions in a glasshouse (at 24/16° C., day/night; 14 hours light; 65% humidity), the plants were sprayed post-emergence with an aqueous spray solution derived from the formulation of the technical active ingredient in acetone/water (50:50) solution containing 0.5% Tween 20 (polyoxyethelyene sorbitan monolaurate, CAS RN 9005-64-5).
as §4

For series [6], the system named is Alopecurus myosuroides (ALOMY). The series can be described thus: Example A glasshouse herbicide test, post-emergence, ALOMY. Conditions: Alopecurus myosuroides, post-emergence, 312 h, Rate 250 g/ha, sprayed after 8 days cultivation, evaluated after 13 days, read-out: Post-Emergence Activity ALOMY (100=total damage to plant; 0=no damage to plant). The protocol: as §1, §2, §3

Series [7] deals with Alopecurus myosuroides (ALOMY). The series can be described thus: Example A glasshouse herbicide test, pre-emergence, ALOMY. Conditions: Alopecurus myosuroides, pre-emergence, 312 h, Rate 250 g/ha, sprayed after cultivation for one day, evaluated after 13 days, read-out: Pre-Emergence Activity ALOMY (100=total damage to plant; 0=no damage to plant). The method, then:
as §1, §2, §3

Series [8] relates to Avena fatua (AVEFA). The series can be described thus: Example A glasshouse herbicide test, pre-emergence, AVEFA. Conditions: Avena fatua, pre-emergence, 312 h, Rate 250 g/ha, sprayed after cultivation for one day, evaluated after 13 days, read-out: Pre-Emergence Activity AVEFA (100=total damage to plant; 0=no damage to plant). The method, then:
as §1, §2, §3

The subject of series [9] is Lolium perenne (LOLPE). The series can be described thus: Example A glasshouse herbicide test, post-emergence, LOLPE. To be noted: Lolium perenne, post-emergence, 312 h, Rate 250 g/ha, sprayed after 8 days cultivation, evaluated after 13 days, read-out: Post-Emergence Activity LOLPE (100=total damage to plant; 0=no damage to plant). The method, then:
as §1, §2, §3

In series [10] the test system is Lolium perenne (LOLPE). Briefly: Example A glasshouse herbicide test, pre-emergence, LOLPE. To be noted: Lolium perenne, pre-emergence, 312 h, Rate 250 g/ha, sprayed after cultivation for one day, evaluated after 13 days, read-out: Pre-Emergence Activity LOLPE (100=total damage to plant; 0=no damage to plant). The method, then: as §1, §2, §3

SMILES strings stand for the structures.

`Cc1cc(C)c(C2C(=O)C/C(=C\C3CCCCC3)C2=O)c(C)c1` (stereo not drawn) [Compound A1]: the pest or weed control at 250 g/ha is 100% in series [1]; 90% in [2]; 80% in [4]; 80% in series [6]; 70% in [7]; 50% in series [8]. The figures for the pest or weed control at 250 g/ha in series [9] and in series [10] were 80% and 100%, respectively. In series [3], the “Winter Wheat (Hereward) + cloquintocet mexyl damage (100=total damage to plant; 0=no damage to plant)” value was determined as 50. Moreover, the “Winter Wheat (Hereward) damage (100=total damage to plant; 0=no damage to plant)” value in [5] is reported as 60.

For the molecule `Cc1cc(C)c(C2C(=O)CC(CC3CCCCC3)C2=O)c(C)c1` (stereo not drawn) [Compound A2], the pest or weed control at 250 g/ha in series [1] came out at 90%; in [2] it was 90%; in series [4] it was 80%; in series [6], 70%; in [7] it was 70%; in series [8], 70%. Besides, the pest or weed control at 250 g/ha in [9] and in series [10] was 100% each time. Further, the “Winter Wheat (Hereward) + cloquintocet mexyl damage (100=total damage to plant; 0=no damage to plant)” value in series [3] is reported as 10. In addition, the “Winter Wheat (Hereward) damage (100=total damage to plant; 0=no damage to plant)” value in series [5] was 70.

Take `Cc1cc(C)c(C2C(=O)CC(CC3CCCC3)C2=O)c(C)c1` (stereo not drawn) [Compound A3]: the pest or weed control at 250 g/ha is 100% in [1]; 90% in series [2]; 80% in [4]; 90% in series [6]; 100% in series [7]; 70% in series [8]. Besides, the pest or weed control at 250 g/ha was 90% in series [9] and 100% in series [10]. Moreover, in series [3], the “Winter Wheat (Hereward) + cloquintocet mexyl damage (100=total damage to plant; 0=no damage to plant)” value turned out to be 20. In addition, the “Winter Wheat (Hereward) damage (100=total damage to plant; 0=no damage to plant)” value in series [5] came out at 60.

As for `Cc1cc(C)c(C2C(=O)C/C(=C\C3CCCC3)C2=O)c(C)c1` (stereo not drawn) [Compound A4], the pest or weed control at 250 g/ha in series [1] is 100%; in series [2] it was 90%; in [4], 70%; in series [6], 70%; in [7], 100%; in series [8], 70%. Also, the pest or weed control at 250 g/ha in series [9] was 60%; in series [10] it was 100%. Further, the “Winter Wheat (Hereward) + cloquintocet mexyl damage (100=total damage to plant; 0=no damage to plant)” value in [3] is 0. The “Winter Wheat (Hereward) damage (100=total damage to plant; 0=no damage to plant)” value in [5] turned out to be 60.

In the case of `C=C(C)C1CCC(/C=C2\CC(=O)C(c3c(C)cc(C)cc3C)C2=O)CC1` (stereo not drawn) [Compound A5], the pest or weed control at 250 g/ha in [1] was determined as 80%; in [2], 30%; in series [4], 20%; in [6], 30%; in series [7] it was 30%; in series [8], 0%. Moreover, the pest or weed control at 250 g/ha in series [9] was found to be 30%; in series [10], 40%. For the same molecule, in series [3], the “Winter Wheat (Hereward) + cloquintocet mexyl damage (100=total damage to plant; 0=no damage to plant)” value amounted to 0. Besides, in series [5], the “Winter Wheat (Hereward) damage (100=total damage to plant; 0=no damage to plant)” value is reported as 10.

As to `Cc1cc(C)c(C2C(=O)CC(CC3CC(C)CCC3C)C2=O)c(C)c1` (stereo not drawn) [Compound A6], the pest or weed control at 250 g/ha came out at 90% in series [1]; 80% in series [2]; 60% in series [4]; 80% in [6]; 50% in series [7]; 50% in series [8]. Further, the values for the pest or weed control at 250 g/ha in [9] and in [10] were 80% and 100%, respectively. Further, the “Winter Wheat (Hereward) + cloquintocet mexyl damage (100=total damage to plant; 0=no damage to plant)” value in series [3] is given as 0. Besides, the “Winter Wheat (Hereward) damage (100=total damage to plant; 0=no damage to plant)” value in [5] is 10.

Take `Cc1cc(Br)cc(C)c1C1C(=O)C/C(=C\C2CCCCC2)C1=O` (stereo not drawn) [Compound A7]: the pest or weed control at 250 g/ha in series [1] was 50%; in series [2], 80%; in series [4] it was 40%; in [6], 50%; in [7] it was 40%; in series [8], 20%. For the same molecule, the pest or weed control at 250 g/ha was determined as 30% in [9] and 60% in series [10]. The “Winter Wheat (Hereward) + cloquintocet mexyl damage (100=total damage to plant; 0=no damage to plant)” value in series [3] was found to be 0. Also, the “Winter Wheat (Hereward) damage (100=total damage to plant; 0=no damage to plant)” value in [5] was determined as 20.

As to `Cc1cc(C)c(C2C(=O)CC(CC3CCC(=NO)CC3)C2=O)c(C)c1` (stereo not drawn) [Compound A8], the pest or weed control at 250 g/ha in series [1] was found to be 90%; in [2], 50%; in series [4] it was 90%; in series [6] it was 70%; in series [7], 60%; in [8], 40%. Moreover, the pest or weed control at 250 g/ha in series [9] came out at 100%; in [10], 90%. The “Winter Wheat (Hereward) + cloquintocet mexyl damage (100=total damage to plant; 0=no damage to plant)” value in series [3] is reported as 10. In addition, the “Winter Wheat (Hereward) damage (100=total damage to plant; 0=no damage to plant)” value in [5] came out at 30.

Consider `Cc1cccc(C)c1C1C(=O)CC(CC2CCCCC2)C1=O` (stereo not drawn) [Compound A10, 4-cyclohexylmethyl-2-(2,6-dimethyl-phenyl)-cyclopentane-1,3-dione], for which the pest or weed control at 250 g/ha in [1] was found to be 20%; in series [2] it was 70%; in [4] it was 20%; in series [6], 20%; in series [7], 0%; in series [8], 0%. For the same molecule, the pest or weed control at 250 g/ha came out at 40% in series [9] and 80% in series [10]. In series [3], the “Winter Wheat (Hereward) + cloquintocet mexyl damage (100=total damage to plant; 0=no damage to plant)” value is 0. The “Winter Wheat (Hereward) damage (100=total damage to plant; 0=no damage to plant)” value in series [5] is reported as 10.

As for `Cc1cc(C)c(C2=C(OC(=O)C(C)(C)C)C(CC3CCC(=NO)CC3)CC2=O)c(C)c1` (stereo not drawn) [Compound B5], the pest or weed control at 250 g/ha in series [1] was found to be 70%; in series [7], 70%; in series [8], 40%; in series [10], 90%. In addition, in [3], the “Winter Wheat (Hereward) + cloquintocet mexyl damage (100=total damage to plant; 0=no damage to plant)” value stood at 10. In addition, in series [5], the “Winter Wheat (Hereward) damage (100=total damage to plant; 0=no damage to plant)” value is 40.
